Our source for the peroxide retention capability values is patent US9192635B2.

The series in a line: Hydrogen peroxide retention after desiccation and rehydration (peroxide check strips). The class given is physicochemical. The note with it: 1-10 g extract in 20 ml 35% hydrogen peroxide, heated at 80° C. to 5 ml, rehydrated; colorimetric strips.

As for `Oc1ccc(C=Cc2cc(O)cc(O)c2)cc1` [resveratrol, Resveratrol], the peroxide retention capability entry was “relatively less ability to form stable perhydrates”.
